Laboratory results from patent US6685932B1, “Coiled-coil dimer derived antagonists of 4-helix bundle cytokines, design and uses thereof” (Europaisches Laboratorium Molekularbiologie, priority 1997, dated 2004).
Like-named read-outs stand apart in the source and are kept apart here. Each block holds one substance with its values, some of them ahead of it. Positions of bridges follow the written chain, without caps; N, C: chain ends. Chains are numbered I, II in the order given.

Experiments:
[1] = target: T1, IL-4Rα (extracellular domain, IL4BP) (Homo sapiens, UniProt P24394, Q231C); assay: biosensor-based binding experiments (BIA2000 system) on immobilised IL-4 binding protein
T1 sequence (P24394 26-232 Q231C): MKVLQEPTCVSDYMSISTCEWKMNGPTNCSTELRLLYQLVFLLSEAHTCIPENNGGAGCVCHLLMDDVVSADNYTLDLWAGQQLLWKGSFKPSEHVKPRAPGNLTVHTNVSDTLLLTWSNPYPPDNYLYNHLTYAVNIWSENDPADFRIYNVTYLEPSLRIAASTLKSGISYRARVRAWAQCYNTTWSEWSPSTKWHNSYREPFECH
From the text: All the peptides were synthesized by solid phase methods, aminated on the C-terminus and acetylated on the N-terminus. The activity of the peptides was investigated by biosensor-based binding experiments using the BIA2000 system (Pharmacia Biosensor), at room temperature. […] An extensive study of the role of disulfide bridges in the stability of coiled-coil structures and proteins in general is available in the literature (86-88).

[2] = temperature-induced denaturation followed by Circular Dichroism; format: physicochemical; conditions: for stability / midpoint transition temperature (Tm), in words: CD at 222 nm
From the text: Upon fitting the experimental data, the midpoint transition temperature (Tm) can be obtained.

- Kd ([1]; room temperature (25° C.), immobilised biotinylated IL4BP): 105597
Substance: RMKQLEDKVEELLSKNYRLENRVARLEKLVG [Model 1]

- binding affinity relative to parent peptide ([1]; relative to peptide bearing cysteine at position 12): binding affinity is not affected
- stability / midpoint transition temperature (Tm), in words [2]: significant drop in the stability
Substance: I: Ac-RMKQLEKKVERCLKRLYRNEWEVIRLKKLVG-NH2 / II: Ac-RMKQLEKKVERCLKRLYRNEWEVIRLKKLVG-NH2 (disulfide I:12-II:12) [Model 12CNMAR-IL4]

Substance: I: Ac-RMKQLEKKVERCLKRNYRLEWEVIRLKKLVG-NH2 / II: Ac-RMKQLEKKVERCLKRNYRLEWEVIRLKKLVG-NH2 (disulfide I:12-II:12) [Model 12CMAR-IL4]
- increase in the binding affinity to IL-4Rα ([1]; relative to MAR-IL4): 5 fold

Substance: Ac-RMKQLEKKVERLLKRNYRLEWEVIRLKKLVG-NH2 [MAR-IL-4]
- Kd [1]: 26 µM
- stability / midpoint transition temperature (Tm), in words [2]: cooperative temperature induced transition characteristic of a folded protein
- temperature at which the peptide starts losing its structure ([2]; low peptide concentrations used to measure binding): 25 °C
